Laboratory results reported in ChEMBL document CHEMBL4814036, “Synthesis and anti-fibrotic effects of santamarin derivatives as cytotoxic agents against hepatic stellate cell line LX2” (Bioorg Med Chem Lett, 2021).
Values after ≈ are worked out from the molar mass of the structure shown. Each block holds one compound with its values, some of them ahead of it. Active and inactive are the calls of the source. No cut-off for these calls is given here.

Assays:
[1] = Inhibition of collagen type 1 deposition in human LX2 cells; type: functional, cell-based; conditions: lx-2
[2] = Inhibition of laminin deposition in human LX2 cells; type: functional, cell-based; conditions: lx-2
[3] = Cytotoxicity against human LX2 cells assessed as reduction in cell viability by MTT assay; type: functional, cell-based; conditions: LX-2
[4] = Inhibition of hyaluronic acid deposition in human LX2 cells; type: functional, cell-based; conditions: lx-2
[5] = Potency index, ratio of STM IC50 to test compound IC50 for inhibition of hyaluronic acid deposition in human LX2 cells; type: functional, LX-2
[6] = Potency index, ratio of STM IC50 to test compound IC50 for cytotoxicity against human LX2 cells; type: functional, LX-2
[7] = Potency index, ratio of STM IC50 to test compound IC50 for inhibition of laminin deposition in human LX2 cells; type: functional, LX-2
[8] = Inhibition of collagen type 1 deposition in human LX2 cells incubated for 72 hrs by ELISA; type: functional, cell-based; conditions: lx-2
LS174T = assay: Growth inhibition of human LS174T cells incubated for 72 hrs by methylene blue staining based assay; type: functional, cell-based
CCRF-CEM = assay: Growth inhibition of human CCRF-CEM cells incubated for 24 to 48 hrs by trypan blue exclusion assay; type: functional, cell-based
L1210 = assay: Growth inhibition of mouse L1210 cells incubated for 24 to 48 hrs by trypan blue exclusion assay; type: functional, cell-based
KB = assay: Growth inhibition of human KB cells incubated for 72 hrs by methylene blue staining based assay; type: functional, cell-based
[9] = Inhibition of laminin deposition in human LX2 cells incubated for 72 hrs by ELISA; type: functional, cell-based; conditions: lx-2
[10] = Cytotoxicity against human LX2 cells assessed as reduction in cell viability incubated for 48 hrs by MTT assay; type: functional, cell-based; conditions: LX-2, 48 h
MCF7 = assay: Growth inhibition of human MCF7 cells incubated for 72 hrs by methylene blue staining based assay; type: functional, cell-based; conditions: MCF7, 72 h
[11] = Inhibition of hyaluronic acid deposition in human LX2 cells incubated for 72 hrs by ELISA; type: functional, cell-based; conditions: lx-2
LX-2 = assay: Cytotoxicity against human LX2 cells assessed as reduction in cell viability at 100 uM by MTT assay; type: functional, cell-based

- IC50 [1]: 51.5 µM
- IC50 [2]: 83.7 µM
- IC50 [4]: 164 µM
Compound: COc1cc([C@H]2Oc3cc([C@H]4Oc5cc(O)cc(O)c5C(=O)[C@@H]4O)ccc3O[C@@H]2CO)ccc1O [SILYBIN A]
- IC50 [3]: 151 µM

Compound: C=C1C(=O)O[C@@H]2[C@H]3C(C)=CC[C@@H](OC(=O)c4ccc(-n5cc(C)ccc5=O)cc4)[C@]3(C)CC[C@@H]12
- IC50 [3]: 55.9 µM

Compound: C=C1C(=O)O[C@@H]2[C@H]3C(C)=CC[C@@H](OC(=O)CCC(=O)O)[C@]3(C)CC[C@@H]12
- IC50 [3]: 92 µM

Compound: C=C1C(=O)O[C@@H]2[C@H]3C(C)=CC[C@@H](OC(=O)CCCC(=O)O[C@@H]4CC=C(C)[C@@H]5[C@H]6OC(=O)C(=C)[C@@H]6CC[C@]54C)[C@]3(C)CC[C@@H]12
- IC50 [3]: 11.1 µM

Compound: C=C1[C@H](O)C[C@@H](O)[C@]2(C)CC[C@H]3C(=C)C(=O)O[C@@H]3[C@@H]12
- IC50 [3]: 43.3 µM

Compound: C=C1C(=O)O[C@@H]2[C@H]3C(C)=CC[C@@H](OC(=O)/C=C/c4ccccc4)[C@]3(C)CC[C@@H]12
- IC50 [3]: 17.6 µM

Compound: C=C1C(=O)O[C@@H]2[C@H]3C(C)=CC[C@@H](OC(=O)/C=C/c4ccncc4)[C@]3(C)CC[C@@H]12
- IC50 [3]: 16.1 µM

Compound: C=C1C(=O)O[C@@H]2[C@H]3C(C)=CC[C@@H](OC(=O)/C=C/c4ccc(OC(C)=O)cc4)[C@]3(C)CC[C@@H]12
- IC50 [3]: 21.5 µM

Compound: C=C1C(=O)O[C@@H]2[C@H]3C(C)=CCC(=O)[C@]3(C)CC[C@@H]12
- IC50 [3]: 44.4 µM

Compound: C=C1C(=O)O[C@@H]2[C@H]3C(C)=CC[C@@H](OC(=O)c4cccc(C(F)(F)F)c4)[C@]3(C)CC[C@@H]12
- IC50 [3]: 11.5 µM

Compound: C=C1C(=O)O[C@@H]2[C@@H]3[C@@](C)(CC[C@@H]12)[C@H](O)C[C@H]1O[C@@]31C
- IC50 [3]: 47.4 µM

Compound: C=C1C(=O)O[C@@H]2[C@H]3C(C)=CC[C@@H](OC(=O)/C=C/c4ccccc4C(F)(F)F)[C@]3(C)CC[C@@H]12
- IC50 [3]: 16.5 µM

Compound: C=C1C(=O)O[C@@H]2[C@H]3C(C)=CC[C@@H](OC(=O)/C=C/c4ccc(C(F)(F)F)cc4)[C@]3(C)CC[C@@H]12
- IC50 [3]: 16.3 µM

- IC50 [1]: 16.2 µM
- IC50 [2]: 6.6 µM
- IC50 [4]: 17.9 µM
Compound: C=C1C(=O)O[C@@H]2[C@H]3C(C)=CC[C@@H](OC(=O)CCC(=O)O[C@@H]4CC=C(C)[C@@H]5[C@H]6OC(=O)C(=C)[C@@H]6CC[C@]54C)[C@]3(C)CC[C@@H]12
- Ratio IC50 [5]: 3
- IC50 [3]: 3.5 µM
- Ratio IC50 [6]: 5
- Ratio IC50 [7]: 3

Compound: C=C1C(=O)O[C@@H]2[C@H]3C(C)=CC[C@@H](OC(C)=O)[C@]3(C)CC[C@@H]12
- IC50 [3]: 12.3 µM

Compound: C=C1C(=O)O[C@@H]2[C@H]3C(C)=CC[C@@H](OC(=O)c4ccccc4)[C@]3(C)CC[C@@H]12
- IC50 [3]: 16.9 µM

Compound: C=C1C(=O)O[C@@H]2[C@H]3C(C)=CC[C@@H](OC(=O)CCCCCCC)[C@]3(C)CC[C@@H]12
- IC50 [3]: 32.4 µM

Compound: C=C1C(=O)O[C@@H]2[C@H]3C(C)=CC[C@@H](OC(=O)c4cccnc4)[C@]3(C)CC[C@@H]12
- IC50 [3]: 27.6 µM

Compound: C=C1C(=O)O[C@@H]2[C@H]3C(C)=CC[C@@H](OC(=O)/C=C/c4ccc(C=O)cc4)[C@]3(C)CC[C@@H]12
- IC50 [3]: 45.5 µM

- IC50 [1]: 6.1 µM
- IC50 [2]: 3.3 µM
- IC50 [4]: 7.6 µM
Compound: C=C1C(=O)O[C@@H]2[C@H]3C(C)=CC[C@@H](OC(=O)/C=C/c4c(F)c(F)c(F)c(F)c4F)[C@]3(C)CC[C@@H]12
- Ratio IC50 [5]: 8
- IC50 [3]: 4.6 µM
- Ratio IC50 [6]: 4
- Ratio IC50 [7]: 6

Compound: C=C1C(=O)O[C@@H]2[C@H]3C(C)=CC[C@@H](OC(=O)c4cccs4)[C@]3(C)CC[C@@H]12
- IC50 [3]: 31.3 µM

Compound: C=C1C(=O)O[C@@H]2[C@H]3C(C)=CC[C@@H](OC(=O)CCC(=O)Oc4ccc(-n5cc(C)ccc5=O)cc4)[C@]3(C)CC[C@@H]12
- IC50 [3]: 55.9 µM

Compound: C=C1C(=O)O[C@@H]2[C@H]3C(C)=CC[C@@H](OC(=O)c4ccc(C(=O)O[C@@H]5CC=C(C)[C@@H]6[C@H]7OC(=O)C(=C)[C@@H]7CC[C@]65C)cc4)[C@]3(C)CC[C@@H]12
- IC50 [3]: 9 µM

- IC50 [8]: 7.3 µM
- IC50 (CCRF-CEM): 0.16 µg/mL (≈ 0.644 µM)
- IC50 (L1210): 0.16 µg/mL (≈ 0.644 µM)
- IC50 (KB): 0.16 µg/mL (≈ 0.644 µM)
- IC50 [9]: 18.6 µM
- IC50 (MCF7): 0.16 µg/mL (≈ 0.644 µM)
- IC50 [11]: > 60 µM
Compound: C=C1C(=O)O[C@@H]2[C@H]3C(C)=CC[C@@H](O)[C@]3(C)CC[C@@H]12 [SANTAMARIN]
- IC50 (LS174T): 0.16 µg/mL (≈ 0.644 µM)
- IC50 [10]: 16.5 µM

- IC50 [1]: 14.7 µM
- IC50 [2]: 7.3 µM
- IC50 [4]: 21.2 µM
Compound: C=C1C(=O)O[C@@H]2[C@H]3C(C)=CC[C@@H](OC(=O)/C=C/c4cccc(C(F)(F)F)c4)[C@]3(C)CC[C@@H]12
- Ratio IC50 [5]: 3
- IC50 [3]: 6.4 µM
- Ratio IC50 [6]: 3
- Ratio IC50 [7]: 3

Compound: C=C1C(=O)O[C@@H]2[C@H]3C(C)=CC[C@@H](OC(=O)/C=C/c4ccc(F)cc4)[C@]3(C)CC[C@@H]12
- IC50 [3]: 21 µM

Compound: CC1=CC[C@@H](O)[C@]2(C)CC[C@@H]3[C@H](OC(=O)[C@H]3CN(C)C)[C@@H]12
- Activity (LX-2): inactive

Compound: C=C1C(=O)O[C@@H]2[C@H]3C(C)=CC[C@@H](OC(=O)C4CCCC4)[C@]3(C)CC[C@@H]12
- IC50 [3]: 11.9 µM
